According to patent US20140309276A1, “Pharmaceutical Composition Comprising a Mixture of Carboxylated Oligonucleotides” (priority 2013, published 2014):

Tests used:
[1] = test system: Ehrlich's ascites adenocarcinoma; assay: Antitumor activity on Ehrlich's ascites adenocarcinoma in mice; type: in vivo, Barbados mice; details: n = 10
Procedure: The antitumor activity of the compositions were studied in models of Ehrlich's ascites carcinoma in young Barbados mice of both sexes with weights between 15-17 g (68 individuals), which were kept on a vivarium diet.
45 mice were inoculated from a mouse with adenocarcinoma using an insulin syringe with 0.1 ml ascitic fluid in the region of the liver.
Ten mice were administered Composition in liposome form (see Table 5). Ten more mice were administered the Composition substance, and ten more were administered a 0.9% solution of sodium chloride with lipids.

benzidine skin sarcoma = assay: Anticancer activity on benzidine skin sarcoma in mice; type: in vivo, Barbados mice; details: n = 10
Excerpt: Composition led to a 95% degeneration of tumor cells. To confirm the in vivo antitumor activity, Composition was studied in benzidine skin sarcoma and reinjected ascites adenocarcinomas in Barbados mice. In five mice with adenocarcinomas, the distribution of the Composition liposome throughout the animals' bodies was also studied using a fluorescent probe dissolved in a phospholipid layer.
A Study of the Anticancer Activity of Composition on Benzidine Sarcoma. Before applying it to the silica gel, 7 ml of a solution of 2% benzidine and 0.9% sodium chloride was added until an opalescent suspension was formed (1 g silica gel for 5 ml NaCl solution). Twenty-five Barbados mice of both sexes with a weight of 18-20 g that were kept on a vivarium diet were administered benzidine and phorbol acetate immobilized on silica gel subcutaneously near the neck. After two weeks, 18 animals had developed tumors of different sizes in the form of a small bump on the neck near the silica gel granulomas. Each group of animals was administered the corresponding compound parenterally at a dose of 100 mcg/kg weight twice a day for two weeks, beginning at 16 days after administration of the carcinogen.

HeLa-2 cells = assay: Anticancer (cytopathic) activity in a culture of HeLa-2 cells, Minimum Active Dose; type: cell-based; details: minimum amount causing degeneration of 90-95% of the cells; 199 medium; observed 5 days
Procedure: Anticancer activity of Composition in a cell culture was made in a culture of HeLa-2 cells. For this purpose, 2-12 mcg of Composition per ml of medium were added to the 199 medium. A culture without Composition in it was used as a control. Cultures were observed daily over the course of five days. The Minimum Active Dose (MAD) of Composition was also considered to be the minimum amount of the drug that caused a degeneration of 90-95% of the cells (Table 1.)

Compound: CC(=O)O[C@@]12CO[C@@H]1C[C@H](O)[C@@]1(C)C(=O)[C@H](O)C3=C(C)[C@@H](OC(=O)[C@H](O)[C@@H](NC(=O)OC(C)(C)C)c4ccccc4)C[C@@](O)([C@@H](OC(=O)c4ccccc4)[C@H]21)C3(C)C [Taxotere]
- Time of Death of Animals after the First Injection, Average Value, Experimental Animals ([1]; in liposomes (+)): 15 ± 0.5 days
- Time of Death of Animals after the First Injection, Average Value, Experimental Animals ([1]; substance without liposomes (−)): 14 ± 0.12 days
- Animal Survival (benzidine skin sarcoma): 28 ± 1.1 days
- MAD (Minimum Active Dose) (HeLa-2 cells): 10 µg/mL
